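Step 1: Grow cells in 96-well plates. Step 2: Expose to compound for 48 hours at 5 concentrations. Step 3: Interpolate endpoints linearly; if unreached, use highest concentration. Abbreviation: GI50, concentration required for 50% inhibition of growth. TGI: total growth inhibition.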
Assays:
Assay in all cases: NCI tumour cell line growth inhibition, 48 h
[1] = tested on: HOP-62 NSCLC
[2] = tested on: SNB-19 CNS
[3] = tested on: HCT-15 colon
[4] = tested on: MDA-MB-435
[5] = tested on: MDA-MB-231 breast
[6] = tested on: MOLT-4 leukemia
[7] = tested on: MCF7 breast
[8] = tested on: UACC-257 melanoma
[9] = tested on: A498 renal
[10] = tested on: NCI-H226 lung

| Compound | TGI [1] | TGI [2] | TGI [3] | TGI [4] | TGI [5] | TGI [6] | TGI [7] | TGI [8] | TGI [9] | TGI [10] | GI50 [4] | GI50 [6] | GI50 [7] | GI50 [2] | GI50 [3] | GI50 [8] |
| --- | --- | --- | --- | --- | --- | --- | --- | --- | --- | --- | --- | --- | --- | --- | --- | --- |
| O=C(N/N=C(/COc1ccccc1Cl)N=Cc1ccncc1)c1ccncc1 | > 100 µM | > 100 µM | > 100 µM | > 100 µM | > 100 µM | > 100 µM | > 100 µM | > 100 µM | > 100 µM | – | – | – | – | – | – | – |
| Cc1c(O)c(OC2OC(CO)C(O)C(O)C2O)cc2c1C=C[C@@H]1[C@@]2(C)C(=O)C[C@]2(C)[C@@H]([C@@](C)(O)C(=O)CCC(C)(C)O)[C@H](O)C[C@@]12C (stereo partly specified) | > 100 µM | 54 µM | 66.3 µM | 66.5 µM | 47.7 µM | 63.7 µM | > 100 µM | 47.2 µM | 36.7 µM | 62.7 µM | – | – | – | – | – | – |
| CN(C)CC1CCC/C(=C\c2ccc(OC(=O)/C=C/c3ccc(Cl)c(Cl)c3)cc2)C1=O (stereo unspecified) | 14.8 µM | 18.6 µM | 6.84 µM | > 60.1 µM | 11.9 µM | 4.13 µM | 5.79 µM | 40.4 µM | 32.1 µM | 4.56 µM | – | – | – | – | – | – |
| CC1=CCC[C@H]2[C@](C)(CC3=CC(=O)C(Sc4ccccc4)=CC3=O)[C@@H](C)CC[C@]12C | 32.6 µM | 38.8 µM | 35.7 µM | 43.5 µM | 51.8 µM | 6.03 µM | 51.7 µM | 32.5 µM | 39 µM | 27.8 µM | 17.1 µM | 2.59 µM | 22.6 µM | – | – | – |
| COc1ccc(N=C2C(=Nc3ccc(OC)cc3)N(c3ccc(N(C)C)cc3)C(=S)N2c2ccc(OC)cc2)cc1 | > 100 µM | > 100 µM | > 100 µM | > 100 µM | > 100 µM | > 100 µM | > 100 µM | > 58.1 µM | > 100 µM | > 100 µM | – | – | – | – | – | – |
| COC1=C2C=[N+](C)C3C(=C2C=CC1OC)Cc1cc2c(cc13)OCO2 (stereo unspecified) | 26.8 µM | 17.2 µM | 35.3 µM | 33.3 µM | 27.8 µM | 17.8 µM | 21.5 µM | 26.2 µM | > 100 µM | 38.4 µM | – | – | – | – | – | – |
| CCOC(=O)C(=CN1CCNC1=S)C(=O)OCC | > 100 µM | > 100 µM | > 100 µM | > 100 µM | > 100 µM | > 100 µM | > 100 µM | > 100 µM | > 100 µM | > 100 µM | – | – | – | > 100 µM | – | – |
| CCOC(=O)c1[nH]c2cccc3c2c1CC[C@H](NC(=O)C(F)(F)F)C3=O | 72.5 µM | 46.3 µM | > 100 µM | > 100 µM | > 100 µM | > 100 µM | > 100 µM | > 100 µM | > 100 µM | > 100 µM | – | – | – | – | – | – |
| CCCCCN(CCCCC)CC(C)(C)C(O)c1ccc(OC)c2ccccc12 (stereo unspecified) | > 100 µM | 28 µM | 21 µM | 29.8 µM | 31.2 µM | 76.9 µM | 22.5 µM | 26.1 µM | 28.1 µM | 33.6 µM | – | – | – | – | – | – |
| COC(=O)c1cccc(OC)c1C#Cc1c(OC)cccc1OC | > 100 µM | > 100 µM | > 100 µM | > 100 µM | > 100 µM | > 100 µM | > 100 µM | > 100 µM | > 100 µM | > 100 µM | – | – | – | – | – | – |
| Cn1ccnc1CCc1ccc(Cl)c(Cl)c1 | > 100 µM | – | > 100 µM | – | – | > 100 µM | – | > 100 µM | > 100 µM | > 100 µM | – | – | – | – | – | – |
| O=C(O)CNC(=O)c1ccc2cc(C(=O)N3CC(CCl)c4ccc([N+](=O)[O-])cc43)[nH]c2c1 (stereo unspecified) | – | > 100 µM | > 100 µM | > 100 µM | > 100 µM | > 100 µM | > 100 µM | > 100 µM | – | > 100 µM | – | – | – | – | – | – |
| CC12CCC(C(=Nc3cc(C(F)(F)F)cc(C(F)(F)F)c3)C1=O)C2(C)C (stereo unspecified) | > 100 µM | > 100 µM | > 100 µM | > 100 µM | > 100 µM | 44.2 µM | > 100 µM | > 100 µM | 62.5 µM | > 100 µM | – | – | – | – | – | – |
| COC([C@@H](OC(=O)c1ccccc1)[C@H](OC(=O)c1ccccc1)C(O)COC(=O)c1ccccc1)n1cc(C)c(=O)[nH]c1=O (stereo partly specified) | > 100 µM | > 100 µM | > 100 µM | > 100 µM | > 100 µM | 60.2 µM | 52.3 µM | > 100 µM | – | 74.5 µM | – | – | – | – | – | – |
| CCCCCCCCCCCCCCCCCC(=O)Nc1ccn(C2CCC(COP(=O)(O)O)O2)c(=O)n1 (stereo unspecified) | > 100 µM | > 100 µM | > 100 µM | > 100 µM | > 100 µM | > 100 µM | > 100 µM | > 100 µM | > 100 µM | > 100 µM | – | – | – | – | – | – |
| O=[N+]([O-])c1ccc([N+]2=NC(c3ccccc3)=NN(c3ccccc3)C2)cc1 | 47.9 µM | > 100 µM | > 100 µM | – | – | > 100 µM | – | > 100 µM | – | > 100 µM | – | – | – | – | – | – |
| Cc1ccc(S(=O)(=O)N/N=C2/CCC(C(C)(C)C)CC2Br)cc1 (stereo unspecified) | > 100 µM | > 100 µM | > 100 µM | 51.8 µM | > 100 µM | 49.3 µM | 51.9 µM | > 100 µM | > 100 µM | 34 µM | – | – | – | – | – | – |
| CN(Cc1cnc2nc(N)nc(N)c2n1)c1ccc(C(=O)NC(CCC(=O)NC(CC(P(=O)(O)O)P(=O)(O)O)C(=O)O)C(=O)O)cc1 (stereo unspecified) | > 100 µM | > 100 µM | > 100 µM | > 100 µM | > 100 µM | > 100 µM | > 100 µM | > 100 µM | – | > 100 µM | – | – | – | – | – | – |
| COCC12CCC(OC)C34C5CC6(O)C(OC)CC(OC(C)=O)(C5C6OC(=O)c5ccccc5)C(C(OC)C13)C4N(C)C2 (stereo unspecified) | > 100 µM | > 100 µM | > 100 µM | > 100 µM | > 100 µM | > 100 µM | > 100 µM | > 100 µM | > 100 µM | > 100 µM | – | – | – | – | – | – |
| NC(CC(O)(c1ccccc1)c1ccccc1)c1ccccc1S (stereo unspecified) | 30.2 µM | 32.4 µM | 33.6 µM | 28 µM | 33.3 µM | 59.6 µM | 29.9 µM | 43.8 µM | 32.7 µM | 29.8 µM | – | – | – | – | – | – |
| Clc1ccc(C2CC(c3cccc(Nc4ccncc4)c3)=NN2c2cc(Cl)cc(Cl)c2)cc1 (stereo unspecified) | – | – | 3.45 µM | 3.16 µM | – | 5.01 µM | 4.73 µM | 4.42 µM | – | – | 1.71 µM | 2.17 µM | 2.05 µM | – | 1.77 µM | 2.12 µM |

From PubChem BioAssay (NCI)
